In ChEMBL document CHEMBL4725370, “Discovery of Proteolysis-Targeting Chimera Molecules that Selectively Degrade the IRAK3 Pseudokinase” (J Med Chem, 2020):
pIC50: −log10 of the molar value. The source made the active and inactive calls. The rule behind the calls is not given here.

Legend:
[1] = target: T1, Protein cereblon/Interleukin-1 receptor-associated kinase 3 (Homo sapiens, UniProt Q9Y616+Q96SW2); assay: Protac activity at CRBN/IRAK3 in human THP1 cells assessed as induction of IRAK3 degradation at 0.1 to 10 uM measured after 24 hrs by Western blot analysis; format: cell-based; details: THP-1, dose microM 0.1-10, time […]
Target sequence in this assay (Q96SW2 whole entry, looked up, one chain of several): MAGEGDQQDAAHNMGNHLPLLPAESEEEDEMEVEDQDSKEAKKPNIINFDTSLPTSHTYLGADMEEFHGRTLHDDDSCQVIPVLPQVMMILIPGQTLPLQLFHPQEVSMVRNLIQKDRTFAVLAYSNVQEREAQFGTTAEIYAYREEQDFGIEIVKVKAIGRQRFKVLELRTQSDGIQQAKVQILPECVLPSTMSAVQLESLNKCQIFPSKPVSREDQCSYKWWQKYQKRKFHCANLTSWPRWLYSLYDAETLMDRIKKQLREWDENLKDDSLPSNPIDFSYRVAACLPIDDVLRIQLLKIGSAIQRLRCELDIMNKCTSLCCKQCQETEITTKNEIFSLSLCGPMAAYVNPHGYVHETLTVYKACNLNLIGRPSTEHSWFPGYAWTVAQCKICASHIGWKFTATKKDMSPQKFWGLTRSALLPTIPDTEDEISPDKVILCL

[2] = target: T1, Protein cereblon/Interleukin-1 receptor-associated kinase 3; assay: Protac activity at CRBN/IRAK3 in human PBMC derived primary macrophages assessed as induction of IRAK3 degradation at 0.3 uM measured after 8 to 32 hrs by Western blot analysis; format: tissue-based; details: Primary macrophage, time hrs 8-32
Target sequence in this assay (Q96SW2 whole entry, looked up, one chain of several): as above

[3] = target: T2, Interleukin-1 receptor-associated kinase 3 (Homo sapiens, UniProt Q9Y616); assay: Inhibition of kinase tracer 236 binding to recombinant human full-length GST-tagged IRAK3 expressed in insect cells by Lanthascreen Eu kinase binding assay
T2 sequence (Q9Y616 whole entry): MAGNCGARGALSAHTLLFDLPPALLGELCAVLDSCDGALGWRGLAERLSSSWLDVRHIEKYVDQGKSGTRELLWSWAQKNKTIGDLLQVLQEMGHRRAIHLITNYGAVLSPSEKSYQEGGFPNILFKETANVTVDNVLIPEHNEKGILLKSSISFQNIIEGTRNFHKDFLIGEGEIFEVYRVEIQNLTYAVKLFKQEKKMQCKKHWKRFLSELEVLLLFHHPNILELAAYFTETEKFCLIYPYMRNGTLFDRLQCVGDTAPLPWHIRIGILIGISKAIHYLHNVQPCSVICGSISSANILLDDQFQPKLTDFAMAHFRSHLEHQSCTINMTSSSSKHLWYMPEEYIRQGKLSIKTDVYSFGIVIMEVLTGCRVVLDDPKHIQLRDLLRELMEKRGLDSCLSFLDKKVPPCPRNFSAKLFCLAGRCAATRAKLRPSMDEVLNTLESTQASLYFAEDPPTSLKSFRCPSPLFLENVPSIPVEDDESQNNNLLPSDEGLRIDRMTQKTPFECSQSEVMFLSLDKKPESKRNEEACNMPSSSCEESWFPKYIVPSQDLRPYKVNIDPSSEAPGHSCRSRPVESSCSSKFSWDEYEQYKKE

[4] = target: Interleukin-1 receptor-associated kinase 1 (Homo sapiens, UniProt P51617); assay: Inhibition of recombinant human N-terminal GST-tagged IRAK1 (194 to 712 residues) expressed in baculovirus expression system using 5-FAM-KKKVSRSGLYRSPSMPENLNRPR-COOH as substrate measured after 240 mins by mobility shift assay
[5] = target: T3, Interleukin-1 receptor-associated kinase 4 (Homo sapiens, UniProt Q9NWZ3); assay: Inhibition of recombinant human full-length His-tagged IRAK4 expressed in baculovirus expression system using 5-FAM-IPTSPITTTYFFFKKK-COOH as substrate measured after 240 mins by mobility shift assay
T3 sequence (Q9NWZ3 whole entry): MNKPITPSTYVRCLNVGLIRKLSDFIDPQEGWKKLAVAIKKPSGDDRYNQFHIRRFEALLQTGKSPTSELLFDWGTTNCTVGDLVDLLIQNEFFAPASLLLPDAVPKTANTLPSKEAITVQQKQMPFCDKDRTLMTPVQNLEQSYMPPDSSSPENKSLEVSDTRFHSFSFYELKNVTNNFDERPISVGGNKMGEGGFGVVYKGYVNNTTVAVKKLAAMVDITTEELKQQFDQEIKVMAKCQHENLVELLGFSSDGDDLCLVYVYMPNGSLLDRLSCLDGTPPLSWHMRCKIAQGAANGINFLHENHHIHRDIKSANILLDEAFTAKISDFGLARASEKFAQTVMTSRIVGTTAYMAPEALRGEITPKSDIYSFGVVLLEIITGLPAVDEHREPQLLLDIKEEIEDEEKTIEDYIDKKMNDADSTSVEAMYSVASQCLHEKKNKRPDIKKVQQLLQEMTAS

[6] = target: T1, Protein cereblon/Interleukin-1 receptor-associated kinase 3; assay: Protac activity at CRBN/IRAK3 in human PBMC derived primary macrophages assessed as induction of IRAK3 degradation at 0.3 uM preincubated for 8 hrs followed by LPS-stimulation and measured after 8 to 32 hrs by Western blot analysis; format: tissue-based; details: Primary macrophage
Target sequence in this assay (Q96SW2 whole entry, looked up, one chain of several): as the sequence (Q96SW2 whole entry, looked up, one chain of several) above

[7] = target: T1, Protein cereblon/Interleukin-1 receptor-associated kinase 3; assay: Protac activity at CRBN/IRAK3 in LPS-induced human THP1 cells assessed as induction of IRAK3 degradation after 16 hrs by Western blot analysis; format: cell-based; details: thp-1
Target sequence in this assay (Q96SW2 whole entry, one chain of several): as the sequence (Q96SW2 whole entry, looked up, one chain of several) above

[8] = Octanol/buffer partition coefficient, log D of the compound at pH 7.4 by shake-flask method; format: physicochemical
Protein cereblon = Protein cereblon (Homo sapiens, UniProt Q96SW2); assay: Inhibition of CRBN (unknown origin)
[9] = Intrinsic apparent permeability across apical to basolateral side in human Caco-2 cells
[10] = Efflux ratio of apparent permeability in human Caco-2 cells
[11] = target: Cyclin-C/Cyclin-dependent kinase 19 (Homo sapiens) (UniProt Q9BWU1+P24863); assay: Inhibition of CDK11/cyclin C (unknown origin) at 0.1 uM relative to control; format: protein-complex assay
[12] = target: T4, Serine/threonine-protein kinase haspin (Homo sapiens, UniProt Q8TF76); assay: Inhibition of GSG2 (unknown origin)
T4 sequence (Q8TF76 whole entry): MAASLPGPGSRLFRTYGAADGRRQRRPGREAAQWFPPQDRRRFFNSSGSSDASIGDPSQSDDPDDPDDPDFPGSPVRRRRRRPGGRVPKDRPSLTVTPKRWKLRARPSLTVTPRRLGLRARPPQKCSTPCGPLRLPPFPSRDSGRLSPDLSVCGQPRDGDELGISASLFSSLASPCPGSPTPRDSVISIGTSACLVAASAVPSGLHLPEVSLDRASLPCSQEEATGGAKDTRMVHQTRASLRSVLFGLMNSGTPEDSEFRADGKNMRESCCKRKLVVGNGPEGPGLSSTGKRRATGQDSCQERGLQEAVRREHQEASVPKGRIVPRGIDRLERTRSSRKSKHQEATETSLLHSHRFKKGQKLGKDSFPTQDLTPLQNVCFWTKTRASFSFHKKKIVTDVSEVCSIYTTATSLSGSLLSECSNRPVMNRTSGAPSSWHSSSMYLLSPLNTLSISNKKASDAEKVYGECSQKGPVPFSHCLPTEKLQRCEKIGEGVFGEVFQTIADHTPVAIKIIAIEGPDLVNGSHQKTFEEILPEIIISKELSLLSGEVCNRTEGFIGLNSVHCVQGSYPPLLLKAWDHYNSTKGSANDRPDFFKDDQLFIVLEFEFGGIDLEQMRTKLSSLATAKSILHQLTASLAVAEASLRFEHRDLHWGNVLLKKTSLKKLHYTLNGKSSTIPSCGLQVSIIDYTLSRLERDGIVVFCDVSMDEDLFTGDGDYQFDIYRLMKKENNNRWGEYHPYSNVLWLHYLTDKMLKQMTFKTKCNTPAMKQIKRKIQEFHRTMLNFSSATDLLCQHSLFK

[13] = target: Serine/threonine-protein kinase haspin (Homo sapiens) (UniProt Q8TF76); assay: Inhibition of GSG2 (unknown origin) at 0.1 uM relative to control
[14] = target: CDK8/Cyclin C (Homo sapiens) (UniProt P49336+P24863); assay: Inhibition of CDK8/cyclin C (unknown origin) at 0.1 uM relative to control; format: protein-complex assay
[15] = target: Interleukin-1 receptor-associated kinase 3 (Homo sapiens) (UniProt Q9Y616); assay: Inhibition of IRAK3 (unknown origin) at 0.1 uM relative to control

Chain of Interleukin-1 receptor-associated kinase 1 (P51617 whole entry, the tested form may be a part): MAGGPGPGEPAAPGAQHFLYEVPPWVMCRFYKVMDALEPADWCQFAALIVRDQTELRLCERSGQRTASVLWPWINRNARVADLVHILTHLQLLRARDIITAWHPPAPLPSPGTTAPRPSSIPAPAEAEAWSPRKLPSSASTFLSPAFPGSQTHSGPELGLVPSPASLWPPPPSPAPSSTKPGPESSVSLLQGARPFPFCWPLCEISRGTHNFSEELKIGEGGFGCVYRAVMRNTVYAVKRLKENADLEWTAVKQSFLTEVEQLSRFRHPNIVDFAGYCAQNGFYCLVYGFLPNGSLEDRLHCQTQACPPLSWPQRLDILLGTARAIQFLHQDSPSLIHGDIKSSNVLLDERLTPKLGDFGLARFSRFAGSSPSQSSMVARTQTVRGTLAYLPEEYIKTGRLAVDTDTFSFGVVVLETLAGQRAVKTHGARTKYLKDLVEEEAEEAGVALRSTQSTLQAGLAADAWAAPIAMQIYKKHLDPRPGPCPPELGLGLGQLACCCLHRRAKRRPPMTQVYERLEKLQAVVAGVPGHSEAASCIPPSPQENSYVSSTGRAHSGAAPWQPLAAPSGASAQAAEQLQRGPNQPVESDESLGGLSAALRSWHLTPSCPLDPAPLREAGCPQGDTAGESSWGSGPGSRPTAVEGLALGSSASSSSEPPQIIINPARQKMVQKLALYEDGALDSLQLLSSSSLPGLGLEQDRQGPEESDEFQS
Chain of Protein cereblon (Q96SW2 whole entry): as the sequence (Q96SW2 whole entry, looked up, one chain of several) above

| Activity [1] | Activity [2] | pIC50 [3] | pIC50 [4] | pIC50 [5] | Activity [6] | DC50 [7] | logD [8] | pIC50 (Protein cereblon) | Papp A→B [9] | efflux ratio [10] | inhibition [11] | pIC50 [12] | inhibition [13] | inhibition [14] | inhibition [15] | SMILES |
| --- | --- | --- | --- | --- | --- | --- | --- | --- | --- | --- | --- | --- | --- | --- | --- | --- |
| inactive | inactive | 8.40 | 5.47 | < 6.00 | inactive | > 10000 nM | 3.7 | < 4.92 |  |  |  |  |  |  |  | CC(C)c1ccn2ncnc(N[C@H]3CC[C@@H](N4CCN(C(=O)CCC(=O)N5CCC(CCN6CCN(c7ccc8c(c7)C(=O)N(C7CCC(=O)N(C)C7=O)C8=O)CC6)CC5)CC4)CC3)c12 (stereo partly specified) |
|  |  | 8.40 | 5.85 | 6.08 |  |  | 2.3 |  | 12 ×10⁻⁶ cm/s | 4.3 |  |  |  |  |  | CC(=O)N1CCN([C@H]2CC[C@@H](Nc3ncnc4[nH]cc(C(C)C)c34)CC2)CC1 |
|  |  | 8.22 |  |  |  |  |  |  |  |  | 51% | 6.82 | 55% | 39% | 91% | CC(=O)N1CCN([C@H]2CC[C@@H](Nc3ncnn4ccc(C(C)C)c34)CC2)CC1 |
